Target: T1, Diacylglycerol lipase-alpha (Homo sapiens, UniProt Q9Y4D2)
T1 sequence (Q9Y4D2 whole entry): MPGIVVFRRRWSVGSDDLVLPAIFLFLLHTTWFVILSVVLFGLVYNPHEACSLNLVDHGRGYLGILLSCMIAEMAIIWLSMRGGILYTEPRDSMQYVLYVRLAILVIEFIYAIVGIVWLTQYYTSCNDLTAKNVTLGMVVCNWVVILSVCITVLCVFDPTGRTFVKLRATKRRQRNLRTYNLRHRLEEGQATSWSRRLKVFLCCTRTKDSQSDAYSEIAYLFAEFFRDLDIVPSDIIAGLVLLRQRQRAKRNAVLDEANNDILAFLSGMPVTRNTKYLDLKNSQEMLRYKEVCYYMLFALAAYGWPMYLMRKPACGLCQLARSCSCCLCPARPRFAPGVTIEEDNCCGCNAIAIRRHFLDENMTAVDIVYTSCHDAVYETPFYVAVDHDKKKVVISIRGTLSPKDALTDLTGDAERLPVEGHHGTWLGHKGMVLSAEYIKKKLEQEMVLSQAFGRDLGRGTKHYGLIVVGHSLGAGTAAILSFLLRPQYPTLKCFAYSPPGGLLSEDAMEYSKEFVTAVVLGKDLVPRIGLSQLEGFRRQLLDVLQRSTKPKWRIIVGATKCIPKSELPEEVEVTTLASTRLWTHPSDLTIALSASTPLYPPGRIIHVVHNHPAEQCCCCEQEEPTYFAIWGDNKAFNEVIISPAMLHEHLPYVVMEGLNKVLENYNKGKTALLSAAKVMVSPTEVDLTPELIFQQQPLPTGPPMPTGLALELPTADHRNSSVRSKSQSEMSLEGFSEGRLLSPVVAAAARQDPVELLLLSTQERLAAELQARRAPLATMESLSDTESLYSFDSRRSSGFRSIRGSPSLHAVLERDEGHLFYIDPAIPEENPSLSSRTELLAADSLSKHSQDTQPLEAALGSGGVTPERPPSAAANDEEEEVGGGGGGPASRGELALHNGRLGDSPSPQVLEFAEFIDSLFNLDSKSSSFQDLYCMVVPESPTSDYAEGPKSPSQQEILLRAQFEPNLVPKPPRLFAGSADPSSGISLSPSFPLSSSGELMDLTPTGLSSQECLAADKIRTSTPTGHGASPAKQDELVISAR
Assay: Inhibition of human DAGLalpha expressed in HEK293T cell membrane fractions using PNP butyrate as substrate preincubated for 20 mins followed by substrate addition by colorimetric surrogate substrate assay

## O=C(CCCCCc1ccccc1)c1nc2ncccc2o1 [1-(oxazolo[4,5-b]pyridin-2-yl)-6-phenylhexan-1-one]
  IC50: 40 nM

Source: BindingDB's records for doi:10.1016/j.bmcl.2016.06.076 (Leiden University, 2016)
